Laboratory results reported in PubChem BioAssay (NCI).
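GI50 is the concentration that inhibits growth by half. TGI: concentration producing complete growth inhibition.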

Experiments:
Assay in all cases: inhibition of tumour cell growth, NCI panel, 384-well format
[1] = tested on: SK-MEL-2 melanoma
[2] = tested on: HS 578T breast
[3] = tested on: COLO 205 colon
[4] = tested on: NCI/ADR-RES ovarian
[5] = tested on: SF-539 CNS
[6] = tested on: K-562 leukemia
[7] = tested on: MDA-MB-468 breast
[8] = tested on: OVCAR-4 ovarian
[9] = tested on: NCI-H23 lung
[10] = tested on: RPMI-8226 leukemia
[11] = tested on: SK-MEL-28 melanoma
[12] = tested on: SR leukemia
[13] = tested on: UO-31 renal
[14] = tested on: NCI-H460 NSCLC
[15] = tested on: HCT-15 colon
[16] = tested on: RXF 393 renal
[17] = tested on: HCC-2998 colon
[18] = tested on: NCI-H522 lung
[19] = tested on: MOLT-4 leukemia
[20] = tested on: 786-0 renal
[21] = tested on: OVCAR-3 ovarian
[22] = tested on: CAKI-1 renal
[23] = tested on: HL-60(TB) leukemia
[24] = tested on: SK-OV-3 ovarian
[25] = tested on: BT-549 breast
[26] = tested on: MCF7 breast
[27] = tested on: MDA-MB-435 melanoma
[28] = tested on: PC-3 prostate
[29] = tested on: SF-295 CNS
[30] = tested on: SF-268 CNS
[31] = tested on: A549 NSCLC
[32] = tested on: EKVX NSCLC
[33] = tested on: KM12 colon
[34] = tested on: NCI-H226 lung
[35] = tested on: CCRF-CEM leukemia
[36] = tested on: IGROV1 ovarian
[37] = tested on: SNB-75 CNS
[38] = tested on: SW-620 colon
[39] = tested on: OVCAR-5 ovarian
[40] = tested on: HT29 colon
[41] = tested on: UACC-257 melanoma
[42] = tested on: MALME-3M melanoma
[43] = tested on: A498 renal
[44] = tested on: MDA-MB-231 breast
[45] = tested on: SK-MEL-5 melanoma
[46] = tested on: T-47D breast
[47] = tested on: M14 melanoma
[48] = tested on: HCT-116 colon
[49] = tested on: HOP-92 NSCLC
[50] = tested on: UACC-62 melanoma
[51] = tested on: TK-10 renal
[52] = tested on: NCI-H322M lung
[53] = tested on: U251 glioblastoma
[54] = tested on: HOP-62 NSCLC
[55] = tested on: SNB-19 CNS
[56] = tested on: ACHN renal
[57] = tested on: DU-145 prostate

CS(=O)(=O)c1ccc(-c2cnc(N)c(C(=O)Nc3ccccc3)n2)cc1
GI50 [1]: 5.35 µM | TGI [1]: 13.2 µM | GI50 [2]: 4.54 µM | TGI [2]: 49.9 µM | GI50 [3]: 29.5 µM | TGI [3]: > 100 µM | GI50 [4]: > 100 µM | TGI [4]: > 100 µM | GI50 [5]: 5.27 µM | TGI [5]: > 100 µM | GI50 [6]: 4.62 µM | TGI [6]: > 100 µM | GI50 [7]: 2.6 µM | TGI [7]: > 100 µM | GI50 [8]: 11.9 µM | TGI [8]: 93 µM | GI50 [9]: 3.02 µM | TGI [9]: 58.7 µM | GI50 [10]: 3.12 µM | TGI [10]: > 100 µM | GI50 [11]: > 100 µM | TGI [11]: > 100 µM | GI50 [12]: 0.603 µM | TGI [12]: 4.57 µM | GI50 [13]: 6.65 µM | TGI [13]: 22.1 µM | GI50 [14]: 3.73 µM | TGI [14]: > 100 µM | GI50 [15]: 3.32 µM | TGI [15]: > 100 µM | GI50 [16]: 6.56 µM | TGI [16]: 43.4 µM | GI50 [17]: 0.543 µM | TGI [17]: 9.37 µM | GI50 [18]: 5.61 µM | TGI [18]: > 100 µM | GI50 [19]: 1.46 µM | TGI [19]: 2.81 µM | GI50 [20]: 3.11 µM | TGI [20]: 65.7 µM | GI50 [21]: 12.1 µM | TGI [21]: > 100 µM | GI50 [22]: 5.25 µM | TGI [22]: 18.4 µM | GI50 [23]: 3.34 µM | TGI [23]: 9.07 µM | GI50 [24]: 3.68 µM | TGI [24]: 40 µM | GI50 [25]: 2.6 µM | TGI [25]: 11.5 µM | GI50 [26]: 2.78 µM | TGI [26]: > 100 µM | GI50 [27]: > 100 µM | TGI [27]: > 100 µM | GI50 [28]: 15 µM | TGI [28]: > 100 µM | GI50 [29]: 7.75 µM | TGI [29]: > 100 µM | GI50 [30]: > 100 µM | TGI [30]: > 100 µM | GI50 [31]: 5.47 µM | TGI [31]: > 100 µM | GI50 [32]: > 100 µM | TGI [32]: > 100 µM | GI50 [33]: 40 µM | TGI [33]: > 100 µM | GI50 [34]: 46.8 µM | TGI [34]: > 100 µM | GI50 [35]: 1.51 µM | TGI [35]: 3.01 µM | GI50 [36]: 2.9 µM | TGI [36]: > 100 µM | GI50 [37]: 16.6 µM | TGI [37]: > 100 µM | GI50 [38]: > 100 µM | TGI [38]: > 100 µM | GI50 [39]: 33.6 µM | TGI [39]: > 100 µM | GI50 [40]: 3.76 µM | TGI [40]: > 100 µM | GI50 [41]: > 100 µM | TGI [41]: > 100 µM | GI50 [42]: 37.2 µM | TGI [42]: > 100 µM | GI50 [43]: 2.78 µM | TGI [43]: 28.6 µM | GI50 [44]: 62.3 µM | TGI [44]: > 100 µM | GI50 [45]: 16.1 µM | TGI [45]: > 100 µM | GI50 [46]: > 100 µM | TGI [46]: > 100 µM | GI50 [47]: 5.68 µM | TGI [47]: > 100 µM | GI50 [48]: > 100 µM | TGI [48]: > 100 µM | GI50 [49]: 4.58 µM | TGI [49]: > 100 µM | GI50 [50]: 18.9 µM | TGI [50]: > 100 µM | GI50 [51]: 2.75 µM | TGI [51]: 18.7 µM | GI50 [52]: 14.9 µM | TGI [52]: > 100 µM | GI50 [53]: 6.52 µM | TGI [53]: > 100 µM | GI50 [54]: 7.72 µM | TGI [54]: > 100 µM | GI50 [55]: 28.2 µM | TGI [55]: > 100 µM | GI50 [56]: 3.02 µM | TGI [56]: 16.1 µM | GI50 [57]: 4.53 µM | TGI [57]: > 100 µM
